Experimental findings from US20080223379A1, “METHODS AND COMPOSITIONS FOR THE TREATMENT OR PROPHYLAXIS OF TENDON AND LIGAMENT INJURY” (DOBAVET GmbH, priority 2007, published 2008) are described below.

Each structure is given as a SMILES string.

The test system of this test is tendon tissue damaged due to ruptured tendon fibrils and hematoma. The experiment in a line: Oral calcium dobesilate therapy of tendon damage in horses, sonographic follow-up. Format: in vivo, horse. The settings on record: adult horses; 1400 mg with the food twice a day (corresponding to 4 mg/kg body weight/day); four months; sonography after one, two and four months; horses walked. How it is done: Calcium dobesilate was administered with the food in a dose of 1400 mg per adult horse, twice a day each (corresponding to 4 mg/kg body weight/day). The therapy is carried out for four months. Therapy progress is documented sonographically after one month, after two months and after four months. During therapy, the horses are walked.

On to `O=S(=O)([O][Ca][O]S(=O)(=O)c1cc(O)ccc1O)c1cc(O)ccc1O` [Calcium dobesilate, calcium dobesilate], for which the “Sonographic therapy progression (structure and density of the tendon in the ultrasound image)” value is “the tendon sections hypoechogenic at the beginning of therapy show a physiological structure and density of the tendon in the ultrasound image at the end of therapy”.
